From patent publication US8952221B2, “Enzymes that synthesize zingiberene” (Board of Trustees of Michigan State University, priority 2011, dated 2015)

Tested on: LA2167-ZIS zingiberene synthase
Test: Recombinant LA2167-ZIS enzyme activity assay, soluble protein from E. coli BL21 plus isoprenoid diphosphate substrate, headspace SPME GC-MS
Type: biochemical, Solanum habrochaites
Details: for Products synthesized by LA2167-ZIS from the supplied substrate: 10 μM substrate, 2 μg soluble protein, 30 min at 30° C., GC-MS extracted ion 93; for Peak Area % of products synthesized by recombinant LA2167-ZIS: substrate 2Z,6Z-Farnesyl diphosphate, SEQ ID NO:3 in pHIS8, E. coli BL21 DE3, GC-MS
Protocol: The synthetic gene was excised from the pUC57 cloning vector by digestion with BamHI and SalI and ligated into the pHIS8 vector previously linearized by digestion with the same enzymes. Recombinant clones were transformed into E. coli BL21 cells. A 5-mL log-phase culture of E. coli BL21 cells containing the expression vector was induced by addition of IPTG to a final concentration of 0.1 mM. The induced cells were incubated with agitation at 25° C. for 16 h, and then harvested by centrifugation at 10,000 g for 15 min. The cell pellet was resuspended in 1 mL extraction buffer (50 mM HEPES pH 8, 5% glycerol, 100 mM KCl, 7.5 mM MgCl2 containing 1 mM dithiothreitol (DTT)) prior to sonication. Soluble proteins were harvested after centrifugation at 10,000 g for 20 min. The supernatant was used for subsequent enzyme assays. Two micrograms of soluble protein were mixed with 10 μM of substrate (GPP, NPP, EE-FPP or 2Z, 6Z-FPP (Echelon Biosciences Inc., Salt Lake City, Utah)) in a 2-mL glass vial. Reactions were allowed to proceed for 30 min at 30° C., and the glass vial headspace was collected with a 65 μm polydimethylsiloxane-divinylbenzene solid-phase microextraction fiber (Supelco, Bellefonte, Pa.). After 5 min of exposure at 42° C., the SPME fiber was retracted and transferred to the GC injector port for desorption at 200° C. onto the GC column for 3 min. The terpenes were separated on a DB5 column (10 m length, inner diameter and 0.25 um). The GC-MS analysis was performed as described previously […] et al. (Plant Physiol 153, 1212-1223 (2010)).

Molecule: CC(C)=CCC/C(C)=C\CC/C(C)=C\COP(=O)(O)OP(=O)(O)O [2Z,6Z-farnesyl diphosphate, (2Z,6Z)-farnesyl diphosphate, reference compound]
- Products synthesized by LA2167-ZIS from the supplied substrate: zingiberene peak at about 4.65 is only observed

Molecule: CC(C)=CCCC(C)c1ccc(C)cc1 (stereo not drawn) [AR-curcumene]
- Peak Area % of products synthesized by recombinant LA2167-ZIS: 0.986%

Molecule: C=C(CCC=C(C)C)[C@@H]1CC=C(C)CC1 [Bisabolene beta]
- Peak Area % of products synthesized by recombinant LA2167-ZIS: 0.107%

Molecule: C=C(C)C(CO)C/C=C(/C)CCC=C(C)C (stereo not drawn) [Sesquilavandulol <Z>]
- Peak Area % of products synthesized by recombinant LA2167-ZIS: 0.228%

Molecule: C=C1C=CC(C(C)CCC=C(C)C)CC1 (stereo not drawn) [Sesquiphellandrene beta]
- Peak Area % of products synthesized by recombinant LA2167-ZIS: 0.567%

Molecule: CC(C)=CCC/C(C)=C/COP(=O)(O)OP(=O)(O)O [geranyl diphosphate, reference compound]
- Products synthesized by LA2167-ZIS from the supplied substrate: failed to synthesize any products

Molecule: CC(C)=CCC/C(C)=C\COP(=O)(O)OP(=O)(O)O [neryl diphosphate, reference compound]
- Products synthesized by LA2167-ZIS from the supplied substrate: failed to synthesize any products

Molecule: bergamotene
- Peak Area % of products synthesized by recombinant LA2167-ZIS: 0.273%

Molecule: zingiberene
- Peak Area % of products synthesized by recombinant LA2167-ZIS: 97.839%
